Test results as given in publication PMC9000469 (Molecules, 2022).
Values joined by “and” are separate entries in the source; they are usually repeats but may differ in a detail not shown here. Equal values may be shown once. “Also recorded” adds a separate entry of the source. Where a name gives a salt, the structure may show the parent alone. Read-outs that look alike come from different tables or passages of the source.

Tests used:
[1] = cited from earlier work
[2] = Permeability across the PermeaPad 96-well plate biomimetic barrier; format: in vitro ADME; conditions: for Effect of medium pH (6.8 versus 7.4) on permeability across the PermeaPad barrier: Student t-test, p > 0.05; for Permeability across the PermeaPad barrier by passive diffusion (in words): pH 6.8 and 7.4; for Papp on the Permeapad membrane: pH not stated in the sentence (equals the pH 7.4 value of Figure 4)
Description: The […]® 96-well plate was purchased from InnoME GmbH ([…], Germany). The plate consists of a bottom plate, a screen plate with a lipid barrier and a lid. The surface area for permeation studying is 0.15 cm^2. The permeability tests across a biomimetic barrier of drug substances were performed from the bottom to the top compartment. The compounds were dissolved in PBS with pH 6.8 or 7.4. […] The permeation tests for all compounds were performed at room temperature (25 °C). HPLC methods were used to determine the concentration of the compound transported. The apparent permeability coefficient (Papp) was calculated according to the protocol described by di Cagno et al..

[3] = parameters: method as in PMID 25840123; conditions: concentration 5 mM; cited from earlier work
Caco-2 cells = experiment: MTT cytotoxicity assay in Caco-2 cells; conditions: 0.0–2.0 mg/mL, 2 h exposure
Description: After leaving them overnight, different concentrations of analyzed substances in HBSS pH 7.4 were added.. Cells were exposed to the substances for 2 h (time of transport across monolayer) in an incubator under optimal culture conditions. After incubation, the solution was removed and the mixture of DMEM cell culture medium and MTT (5 mg/mL) was added. Cells were incubated for 2 h, and then the resulting formazan crystals were dissolved in DMSO. The absorbance was measured using an Elx-800 absorbance microplate reader (Biotek, Winooski, VT, USA) at wavelength 540 nm.

Caco-2 monolayer [4] = conditions: for Papp across Caco-2 monolayer: basolateral to apical, 2 h, pH 7.4, 37 °C, mean ± SD, n = 3
Description: For the transport study, the Caco-2 cells were seeded at 4 × 10^5 cells/well on the permeable cell culture inserts with a 0.4 µm pore diameter (Millipore-Merck Group, Darmstadt, Germany) placed in 6-well plates. The cells were cultured for 22 days in the incubator under optimal culture conditions (37 °C, 5% CO2, and 95% air) to their spontaneity differentiating. The integrity of the monolayer was tested by measuring the Trans Epithelial Electrical Resistance (TEER) every 48 h using a Millicel ERS-2 Voltohmmeter (Millipore-Merck Group, Darmstadt, Germany). The cells’ monolayer with an average TEER value > 600 Ohm × cm^2 was considered to be suitable for permeability testing.
The permeability tests across the Caco-2 monolayer of substances were performed from basolateral to the apical compartment (B–A). Plates with cell culture inserts were incubated at 37 °C with shaking at 100 rpm for 2 h. Drug substances were dissolved in the transport buffer solution (HBSS with 25 mM HEPES, pH 7.4) and placed into a donor compartment. The solution volume in the apical and basolateral compartments was maintained at 2 mL and 4 mL, respectively. The samples (150 µL) from the acceptor compartment were taken at 15 min intervals and were replaced with fresh reheated (37 °C) buffer. The HPLC analysis described below was used to determine the concentration of the compound transported. Transport kinetics and the apparent permeability coefficient (Papp) were calculated according to the protocols described by Tavelin et al. and Hubatsch et al..
Concentrations of all compounds transported were determined by the reverse phase HPLC with UV-VIS detection. HPLC analysis was conducted on Waters UPLC Acquity H-class apparatus with Empower 3.0 software (Waters Corporation, Milford, MA, USA). […] The isocratic flow rate was set as 0.6 mL/min and the detection wavelength on λ = 215 nm.

[5] = Physicochemical properties of compounds (pKa, logP); conditions: internal data
Text: PA was obtained from Ethifarm (Ethifarm, Poznan, Poland). Reference substances CAF and NF were obtained from Sigma Aldrich (Merck Group, Darmstadt, Germany).

[6] = cited from earlier work; remark: listed apart in the source
PEPT1 = test system: PEPT1; parameters: method as in PMID 19519280; conditions: cited from earlier work
PEPT2 = test system: PEPT2; parameters: method as in PMID 19519280; conditions: cited from earlier work
[7] = conditions of high temperatures and relative humidity; cited from earlier work
Caco-2 monolayer [8] = conditions: previously published results, cited from earlier work

Structure (SMILES): CCC[C@H](N[C@@H](C)C(=O)N1[C@H](C(=O)O)C[C@@H]2CCCC[C@@H]21)C(=O)O [Perindoprilat, perindoprilat]
- Average bioavailability of the active metabolite ([1]; after oral PA): about 25%
- Mean half-life [1]: 5 to 11 h

Structure (SMILES): CCC[C@H](N[C@@H](C)C(=O)N1[C@H](C(=O)O)C[C@@H]2CCCC[C@@H]21)C(=O)OCC [perindopril]
- Fraction metabolized into perindoprilat during the first pass of the liver ([1]; oral administration, no ref printed with the sentence): 30–50%

Structure (SMILES): Cn1c(=O)c2c(ncn2C)n(C)c1=O [CAF, caffeine]
- Effect of medium pH (6.8 versus 7.4) on permeability across the PermeaPad barrier [2]: no significant difference
- Permeability across the PermeaPad barrier by passive diffusion (in words) [2]: highest transport
- Permeability across the PermeaPad barrier by passive diffusion (in words) ([2]; listed as Caffeine): high permeable
- Papp in the PermeaPad barrier [3]: 24 ×10⁻⁶ cm/s

Structure (SMILES): CCC[C@H](N[C@@H](C)C(=O)N1[C@H](C(=O)O)C[C@@H]2CCCC[C@@H]21)C(=O)OCC.N=C(N)NCCC[C@H](N)C(=O)O [PA, Perindopril arginine]
- Cytotoxicity to the Caco-2 cell line (MTT) (Caco-2 cells): not cytotoxic; also recorded: No effect
- Compound Permeability (Caco-2 monolayer) (Caco-2 monolayer [4]; 1.0 mg/mL): low (when Papp is lower than 1 × 10^−6 cm/s, the substance is considered poorly permeable)
- Papp across Caco-2 monolayer (Caco-2 monolayer [4]; 1.0 mg/mL): 0.72 ± 0.04 × 10^−6 cm/s
- Papp across Caco-2 monolayer (Caco-2 monolayer [4]; 2.0 mg/mL): 1.94 ± 0.96 × 10^−6 cm/s
- Papp on the Permeapad membrane ([2]; 1.0 mg/mL): 35.7 ×10⁻⁶ cm/s
- Papp on the Permeapad membrane ([2]; 2.0 mg/mL): 43.9 ×10⁻⁶ cm/s
- Effect of medium pH (6.8 versus 7.4) on permeability across the PermeaPad barrier [2]: did not affect; also recorded: no significant differences
- Permeability across the PermeaPad barrier by passive diffusion (in words) [2]: lowest permeability; also recorded: relatively low permeability
- pKa (strongest acid) [5]: 3.17
- pKa (strongest base) [5]: 5.67
- logP ([5]; two values printed per compound without explanation): 0.65 and 0.56
- Time to peak plasma concentrations (absorption completed) ([1]; after oral administration): approximately 1 h
- Absolute oral bioavailability [1]: 75%
- Permeability (BCS characterisation) [6]: low permeability
- Permeability (characterisation) [6]: low permeability
- Interaction with the intestinal peptide transporter PEPT1 (PEPT1): relatively poor interaction
- Interaction with the intestinal peptide transporter PEPT2 (PEPT2): relatively poor interaction
- Shelf life and stability of the arginine salt compared with the erbumine salt [7]: greater shelf life and stability

Structure (SMILES): CCN(CC)CCOC(=O)C(Cc1cccc2ccccc12)CC1CCCO1 (stereo not shown) [NF, Naftidrofuryl oxalate]
- Effect of medium pH (6.8 versus 7.4) on permeability across the PermeaPad barrier [2]: slightly lower permeability of NF in medium at pH 7.4
- Papp at 4 h ([2]; not told, both 0.2 mg/mL and 0.125 mg/mL, read-out: Papp through the PermeaPad membrane, bound stated for both concentrations): > 10 ×10⁻⁶ cm/s
- Permeability across the PermeaPad barrier by passive diffusion (in words) [2]: relatively high and high
- pKa [5]: 4.1
- Papp through the Caco-2 monolayer (Caco-2 monolayer [8]; 0.125 mg/mL): 84.1 ×10⁻⁶ cm/s
- Papp through the Caco-2 monolayer (Caco-2 monolayer [8]; 0.2 mg/mL): 78.8 ×10⁻⁶ cm/s
